# Experimental data published in article PMC9177545, “3-oxo-C12:2-HSL, quorum sensing molecule from human intestinal microbiota, inhibits pro-inflammatory pathways in immune cells via bitter taste receptors” (Scientific Reports, 2022).
# Tests used:
# TAS2R10 = biological target: T1, TAS2R10 (Homo sapiens, UniProt Q9NYW0); assay: Bitter taste receptor screening, calcium mobilization in HEK293T cells; type: cell-based
# T1 construct: first 45 amino acids of rat somatostatin type 3 receptor (SSTR3) (N); expressed in transfected cells; host or cells: HEK293T stably expressing chimeric Gα16gust44, transiently co-transfected with the pcDNA4-TAS2R vector and pCMV-GCaMP5G
# T1 sequence (Q9NYW0 1-307): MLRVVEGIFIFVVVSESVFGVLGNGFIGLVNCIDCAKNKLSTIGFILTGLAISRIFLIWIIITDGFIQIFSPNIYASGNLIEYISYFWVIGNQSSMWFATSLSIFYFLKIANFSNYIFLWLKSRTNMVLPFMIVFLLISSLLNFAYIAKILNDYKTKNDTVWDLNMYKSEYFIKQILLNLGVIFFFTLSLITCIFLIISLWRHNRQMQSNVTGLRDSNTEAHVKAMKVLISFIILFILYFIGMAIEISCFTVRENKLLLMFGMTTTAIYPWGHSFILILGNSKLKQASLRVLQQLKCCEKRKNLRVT
# Protocol: (§1) Bitter taste receptor cDNA were cloned into the pcDNA4 mammalian expression vector (Invitrogen) using full coding receptor sequences reported on UniProt database. The synthetic constructs were codon optimized (Genewiz) and combine the first 45 amino acids of rat somatostatin type 3 receptor at the amino terminus to improve plasma membrane targeting of the receptors in the heterologous system. The FLAG epitope was added to the carboxy terminus without interfering with receptor functionality and can be used for immunocytochemistry. Calcium-mobilization assays were performed using human embryonic kidney cells (HEK293T) stably transfected with chimeric Gα16gust44 protein[78]. Cells were seeded in black, poly-D-lysine coated 96-well plates at a density of 35,000 cells/100 µL in high glucose DMEM supplemented with 10% dialysed fetal bovine serum and 1% penicillin/streptomycin. Twenty-four hours later, the cells were transiently co-transfected using Lipofectamine 2000 (Life Technologies) with one of the TAS2R synthetic optimized vectors or empty expression plasmid, as a negative control, and the pCMV-GCaMP5G construct (Addgene #31788) coding for a genetically encoded calcium indicator[79],[80]. Twenty-four hours after transfection, cells were washed twice with C1 buffer (130 mM NaCl, 5 mM KCl, 10 mM HEPES, 2 mM CaCl2, 5 mM sodium pyruvate, pH7.4). 3-oxo-C12:2-HSL was solved in DMSO and further diluted in C1 buffer. Next, the cells were placed in a fluorometric imaging plate reader (Flexstation® 3, Molecular Devices) and stimulated with automatic injection of increasing concentrations of AHLs. Calcium responses leading to increase in fluorescence were monitored at 510 nm after excitation at 488 nm. Experiments were performed in duplicates and repeated at least four times. The recorded calcium levels of each wells receiving the same stimulus were averaged, response of mock-transfected cells were subtracted from receptor-transfected cells and net signals were normalized to background fluorescence (F/F0, F0 fluorescence light before stimulus application). The resulting dose–response curves of the averaged fluorescent signal amplitudes against the logarithm of the agonist concentration were fitted using Sigma Plot software. For data analysis, the four-parameter logistic equation [f(x) = min + (max − min)/(1 + (x/EC50)nH)] was used to calculate the half-maximal effective concentrations (EC50 values).
# TAS2R13 = biological target: T2, TAS2R13 (Homo sapiens, UniProt Q9NYV9); assay: as above; type: cell-based
# T2 construct: first 45 amino acids of rat somatostatin type 3 receptor (SSTR3) (N); expressed in transfected cells; host or cells: HEK293T stably expressing chimeric Gα16gust44, transiently co-transfected with the pcDNA4-TAS2R vector and pCMV-GCaMP5G
# T2 sequence (Q9NYV9 1-303): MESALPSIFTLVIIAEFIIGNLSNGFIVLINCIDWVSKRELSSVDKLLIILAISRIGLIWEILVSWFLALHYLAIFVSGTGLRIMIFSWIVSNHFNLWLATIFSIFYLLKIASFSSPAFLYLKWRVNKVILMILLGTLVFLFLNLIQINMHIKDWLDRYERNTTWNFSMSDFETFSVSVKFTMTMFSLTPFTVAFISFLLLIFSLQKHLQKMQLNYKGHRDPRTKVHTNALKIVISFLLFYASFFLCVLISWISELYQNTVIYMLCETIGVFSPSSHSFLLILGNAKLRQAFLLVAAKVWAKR
# Protocol: as §1
# TAS2R14 = biological target: T3, TAS2R14 (Homo sapiens, UniProt Q9NYV8); assay: as above; type: cell-based; details: calcium response F/F0
# T3 construct: first 45 amino acids of rat somatostatin type 3 receptor (SSTR3) (N); expressed in transfected cells; host or cells: HEK293T stably expressing chimeric Gα16gust44, transiently co-transfected with the pcDNA4-TAS2R vector and pCMV-GCaMP5G
# T3 sequence (Q9NYV8 1-317): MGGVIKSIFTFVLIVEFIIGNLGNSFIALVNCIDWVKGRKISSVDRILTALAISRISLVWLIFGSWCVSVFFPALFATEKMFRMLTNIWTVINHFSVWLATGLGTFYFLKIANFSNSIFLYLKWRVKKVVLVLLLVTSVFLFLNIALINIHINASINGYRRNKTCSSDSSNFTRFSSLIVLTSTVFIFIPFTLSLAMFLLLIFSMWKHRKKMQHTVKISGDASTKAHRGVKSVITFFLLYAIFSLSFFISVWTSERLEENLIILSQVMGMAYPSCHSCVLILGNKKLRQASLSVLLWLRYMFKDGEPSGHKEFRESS
# Protocol: as §1
# Caco-2/TC7 = test system: Caco-2/TC7; design: method as in PMID 30157234; details: Caco-2/TC7 stimulated by IL-1β ref 17; cited from earlier work
substance,measurement,setting,value
3-oxo-C12:2-HSL,maximum amplitude,TAS2R10; calcium response F/F0,0.13 ± 0.03
same,EC50,"TAS2R10; calcium response, 0–1000 µM",438 ± 120 µM
same,maximum amplitude,TAS2R13; calcium response F/F0,0.59 ± 0.03
same,EC50,"TAS2R13; calcium response, 0–1000 µM",884 ± 41 µM
same,maximum amplitude,TAS2R14,around 0.45
same,IL-8 production,Caco-2/TC7,decreased
